Results taken from PMC5733478, “A Non-imaging High Throughput Approach to Chemical Library Screening at the Unmodified Adenosine-A3 Receptor in Living Cells” (Frontiers in Pharmacology, 2017).
Where a name gives a salt, the structure may show the parent alone.

Target: T1, human A3AR (Homo sapiens, UniProt P0DMS8)
T1 construct: expressed in transfected cells
T1 sequence (P0DMS8 1-318): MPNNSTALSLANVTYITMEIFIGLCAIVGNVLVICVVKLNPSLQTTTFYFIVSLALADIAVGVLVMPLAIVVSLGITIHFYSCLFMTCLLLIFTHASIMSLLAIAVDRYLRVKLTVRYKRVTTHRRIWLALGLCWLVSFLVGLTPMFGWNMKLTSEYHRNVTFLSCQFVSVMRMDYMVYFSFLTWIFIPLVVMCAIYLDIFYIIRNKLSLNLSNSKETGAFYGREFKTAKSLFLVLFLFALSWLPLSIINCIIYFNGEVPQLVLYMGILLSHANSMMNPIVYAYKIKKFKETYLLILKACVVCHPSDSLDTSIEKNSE
Experiment: LOPAC library primary screen: single concentration (10 μM) inhibition of 25 nM CA200645 binding, PHERAstar FS
Conditions: not given

`O=C[C@H](Cl)[C@@H](O)[C@H](O)[C@H](O)CO` [2-Chloro-2-deoxy-D-glucose] and `CC1CCN(CC[C@H]2CCCN2S(=O)(=O)c2cccc(O)c2)CC1.Cl` [SB 269970 hydrochloride] are within error of each other in “% 25 nM CA200645 binding” value: 89.9 ± 5.0% for the first, 93.6 ± 22.9% for the second.

S(-)-UH-301 hydrochloride and `CC1=NS(=O)(=O)c2cc(Cl)ccc2N1` [Diazoxide] are within error of each other in “% 25 nM CA200645 binding” value: 106.6 ± 12.1% for the first, 101.5 ± 12.2% for the second.

`NC/C=C/C(=O)O` [(E)-4-amino-2-butenoic acid] and `Cl.O[Si](CCCN1CCCCC1)(c1ccc(F)cc1)C1CCCCC1` (stereo not shown) are within error of each other in “% 25 nM CA200645 binding” value: 101.5 ± 12.6% for the first, 104.8 ± 7.7% for the second.

Compared with `CC(C)=CCOc1c2occc2cc2ccc(=O)oc12` [Imperatorin], `Cc1oncc1C(=O)Nc1ccc(C(F)(F)F)cc1` [Leflunomide] is higher in “% 25 nM CA200645 binding” value: 47.6 ± 2.3% for the first, 100.1 ± 5.3% for the second.

`C=C[C@@]1(C)CC(=O)[C@]2(O)[C@@]3(C)[C@@H](O)CCC(C)(C)[C@@H]3[C@H](O)[C@H](OC(C)=O)[C@@]2(C)O1` [Forskolin] and `N#CCCN.N#CCCN.O=C(O)/C=C/C(=O)O` [3-Aminopropionitrile fumarate] are within error of each other in “% 25 nM CA200645 binding” value: 100.9 ± 7.2% for the first, 91.9 ± 6.3% for the second.

First: O=C(O)/C=C\C(=O)O.O=C1/C(=C/c2ccccc2)C[C@@]2(O)[C@H]3Cc4ccc(O)c5c4[C@@]2(CCN3CC2CC2)[C@H]1O5 [BNTX maleate salt hydrate]
Second: CC1=C(C(=O)O)N2C(=O)[C@@H](NC(=O)[C@H](N)C3=CCC=CC3)[C@H]2SC1 [Cephradine]
The “% 25 nM CA200645 binding” value of the first is higher: 109.9 ± 5.7% for the first, 95.6 ± 1.1% for the second.

`N#CC(=C(/N)Sc1ccccc1N)/C(C#N)=C(/N)Sc1ccccc1N` [U0126] and `C=CCc1cccc(/C=N/NC(=O)CN2CCN(Cc3ccccc3)CC2)c1O` [PAC-1] are within error of each other in “% 25 nM CA200645 binding” value: 97.2 ± 19.0% for the first, 105.3 ± 4.5% for the second.

Compared with `CN1C(=O)CC[C@H]1c1cccnc1` [(-)-Cotinine], `Nc1nc(N)c(N=O)c(OCC2CCCCC2)n1` [NU6027] is lower in “% 25 nM CA200645 binding” value: 106.5 ± 4.3% for the first, 80.6 ± 9.9% for the second.

`Cn1c(=O)c2c(ncn2C)n(C)c1=O` [caffeine, reference compound] and `CCCCCCCCCCC/C=C\C(C)(C)/C=C\CCCC(=O)O` [7,7-Dimethyl-(5Z,8Z)-eicosadienoic acid] are within error of each other in “% 25 nM CA200645 binding” value: 95.8 ± 4.7% for the first, 100.3 ± 12.4% for the second.

`COC(=O)C1=CO[C@@H](O)[C@@H]2C(CO)=CC[C@H]12` [Genipin] and `CC(N)(Cc1ccc(O)c(O)c1)C(=O)O` (racemic) are within error of each other in “% 25 nM CA200645 binding” value: 96.3 ± 9.0% for the first, 86.8 ± 7.1% for the second.

`CSc1ccc2c(c1)N(CCC1CCCCN1C)c1ccccc1S2` (stereo not shown) [Thioridazine hydrochloride] and `CC(C)(C)c1o[nH]c(=O)c1CC(N)C(=O)O` (stereo not shown) [ATPA] are within error of each other in “% 25 nM CA200645 binding” value: 102.5 ± 9.6% for the first, 96.6 ± 6.2% for the second.

`CC(N)c1cccc(Cl)c1Cl.Cl` (racemic) and `C[C@H]1O[C@@H](n2cc(F)c(=O)[nH]c2=O)[C@H](O)[C@@H]1O` [5-fluoro-5'-deoxyuridine] are within error of each other in “% 25 nM CA200645 binding” value: 100.4 ± 9.9% for the first, 95.4 ± 4.3% for the second.

`O=c1[nH]c2ccccc2n1C1CCN(CCCC(c2ccc(F)cc2)c2ccc(F)cc2)CC1` [Pimozide] and `O=c1[nH]c2ccccc2n1CCCN1CCC(n2c(=O)[nH]c3cc(Cl)ccc32)CC1` [Domperidone] are within error of each other in “% 25 nM CA200645 binding” value: 78.2 ± 10.9% for the first, 99.6 ± 10.5% for the second.

`O=C(O)CCCCC1CCSS1` (racemic) [(±)-alpha-Lipoic Acid] and `CC(C)NNC(=O)c1ccncc1.O=P(O)(O)O` [Iproniazid phosphate] are within error of each other in “% 25 nM CA200645 binding” value: 99.7 ± 5.6% for the first, 103.0 ± 5.6% for the second.

`c1ccc2c(c1)[I+]c1ccccc1-2` [Diphenyleneiodonium chloride] and `OCCN1CCN(CCCN2c3ccccc3C=Cc3ccccc32)CC1` [Opipramol dihydrochloride] are within error of each other in “% 25 nM CA200645 binding” value: 92.7 ± 5.6% for the first, 100.5 ± 7.4% for the second.

`CN(C)CCCN1c2ccccc2Sc2ccccc21` [Promazine hydrochloride] and `O=C(c1ccc2c(c1)OCCO2)N1CCCCC1` [CX 546] are within error of each other in “% 25 nM CA200645 binding” value: 80.6 ± 8.4% for the first, 95.5 ± 26.6% for the second.

`C[N+]1(C)CCC(OC(=O)C(c2ccccc2)c2ccccc2)CC1.[I-]` [4-DAMP methiodide] and `Cl.c1ccc(CN(CC2=NCCN2)c2ccccc2)cc1` [Antozoline hydrochloride] are within error of each other in “% 25 nM CA200645 binding” value: 84.9 ± 19.8% for the first, 97.0 ± 6.0% for the second.

`CSC(=N)N.CSC(=N)N.O=S(=O)(O)O` [S-Methylisothiourea hemisulfate] and `Cc1ccccc1N1C(=O)c2cc(S(N)(=O)=O)c(Cl)cc2NC1C` (stereo not shown) [Metolazone] are within error of each other in “% 25 nM CA200645 binding” value: 112.2 ± 21.2% for the first, 90.5 ± 39.1% for the second.

`O=C(c1ccc(Cl)cc1)N1CCN(c2ccc([N+](=O)[O-])c3ncccc23)CC1` [CPNQ] and `COCC(=O)O[C@]1(CCN(C)CCCc2nc3ccccc3[nH]2)CCc2cc(F)ccc2[C@@H]1C(C)C` [Mibefradil dihydrochloride] are within error of each other in “% 25 nM CA200645 binding” value: 83.4 ± 4.6% for the first, 107.6 ± 26.6% for the second.

`N.N.N.Nc1ncnc2c1ncn2C1OC(COP(=O)(O)OP(=O)(O)OP(=O)(O)OP(=O)(O)OC[C@H]2O[C@@H](n3cnc4c(N)ncnc43)C(O)C2O)[C@@H](O)C1O` (stereo in doubt) and `N[C@@H](Cc1ccc(F)cc1)C(=O)O` [p-Fluoro-L-phenylalanine] are within error of each other in “% 25 nM CA200645 binding” value: 101.2 ± 10.2% for the first, 98.5 ± 8.4% for the second.

`CC(=O)OCC1=C(C(=O)O)N2C(=O)[C@@H](NC(=O)Cc3cccs3)[C@H]2SC1` [Cephalothin sodium] and `O=C(O)CCc1nc(-c2ccccc2)c(-c2ccccc2)o1` [Oxaprozin] are within error of each other in “% 25 nM CA200645 binding” value: 104.6 ± 12.0% for the first, 97.6 ± 6.3% for the second.

Compared with `Nc1nc2ccc(Cl)cc2c2nc(-c3ccco3)nn12` [CGS-15943], `COc1cc(/C=C(\C#N)C(=O)c2ccc(O)c(O)c2)cc(I)c1O` [I-OMe-Tyrphostin AG 538] is higher in “% 25 nM CA200645 binding” value: 30.0 ± 3.0% for the first, 71.3 ± 34.4% for the second.

`CC1=C(C(=O)O)N2C(=O)[C@@H](NC(=O)[C@H](N)c3ccccc3)[C@H]2SC1.O` [Cephalexin hydrate] and `CN1C[C@H](O)[C@@H](O)[C@H](O)[C@H]1CO` [N-Methyl-1-deoxynojirimycin] are within error of each other in “% 25 nM CA200645 binding” value: 101.0 ± 8.0% for the first, 100.7 ± 20.9% for the second.

`O=C(Nc1ccc([N+](=O)[O-])cc1Cl)c1cc(Cl)ccc1O` [Niclosamide] and `O=C(O)[C@@H]1CCN1` [L-azetidine-2-carboxylic acid] are within error of each other in “% 25 nM CA200645 binding” value: 101.6 ± 22.5% for the first, 100.7 ± 4.1% for the second.

`NNC(=O)c1ccc(O)cc1` [4-Hydroxybenzhydrazide] and `NC(Cc1ccc(Cl)cc1)C(=O)O` (racemic) [(±)-p-Chlorophenylalanine] are within error of each other in “% 25 nM CA200645 binding” value: 105.3 ± 8.4% for the first, 94.9 ± 9.4% for the second.

`Brc1c(NC2=NCCN2)ccc2nccnc12` [UK 14,304] and `Cc1nc2n(c(=O)c1CCN1CCC(c3noc4cc(F)ccc34)CC1)CCCC2O` (stereo not shown) [Paliperidone] are within error of each other in “% 25 nM CA200645 binding” value: 102.1 ± 10.4% for the first, 94.9 ± 1.6% for the second.

`CC(N)C(O)c1ccc(O)c(O)c1` (single isomer, unassigned; (-)) [(-)-alpha-Methylnorepinephrine] and `CCN(CC)C(=S)SSC(=S)N(CC)CC` [Tetraethylthiuram disulfide] are within error of each other in “% 25 nM CA200645 binding” value: 100.4 ± 6.1% for the first, 88.1 ± 9.2% for the second.

`CCCCC1(C2CCCC2)Cc2cc(OCC(=O)O)c(Cl)c(Cl)c2C1=O` (stereo in doubt) [R(+)-Butylindazone] and `CCN(CC)CCCN(c1ccccc1)C1Cc2ccccc2C1` [Aprindine hydrochloride] are within error of each other in “% 25 nM CA200645 binding” value: 91.2 ± 11.8% for the first, 96.8 ± 13.3% for the second.

`Ic1ccccc1CNC1C2CCN(CC2)C1C(c1ccccc1)c1ccccc1.O=C(O)C(=O)O` [L-703,606 oxalate salt hydrate] and `Cn1cnc2c1c(=O)[nH]c(=O)n2C` [Theobromine] are within error of each other in “% 25 nM CA200645 binding” value: 93.3 ± 4.4% for the first, 101.7 ± 4.5% for the second.

Compared with `CNC[C@H](O)c1cccc(O)c1` [Phenylephrine hydrochloride], `Oc1ccc(-c2nc(-c3ccncc3)c(-c3ccc(F)cc3)[nH]2)cc1` [SB 202190] is lower in “% 25 nM CA200645 binding” value: 102.2 ± 12.7% for the first, 68.5 ± 12.1% for the second.

`CN(C)c1ccc(/C=C2\C(=O)Nc3ccccc32)cc1` [SU 4312] was tested, and the “% 25 nM CA200645 binding” value was 53.2 ± 16.7%.

Same assay, conditions: % of control wells (1% DMSO and 25 nM CA200645); compounds at 10 µM; […]; mean ± SD, three experiments in duplicate

`O=c1c(O)c(-c2ccc(O)c(O)c2)oc2cc(O)cc(O)c12` [Quercetin dihydrate] was tested, and the “% 25 nM CA200645 binding” value was 25.2 ± 6.9%.

Same assay, conditions: % of control wells (1% DMSO and 25 nM CA200645); compounds at 10 µM; whole live cells expressing the A3AR; mean ± SD, three experiments in duplicate

`Cc1ccccc1/C=C/C1=NCCN1` [Metrazoline oxalate] and `N[C@@H](Cc1c[nH]c2ccccc12)C(=O)O` [L-Tryptophan] are within error of each other in “% 25 nM CA200645 binding” value: 97.1 ± 2.0% for the first, 100.0 ± 3.7% for the second.

Same assay, conditions: compounds tested at 10 µM; % of control wells (1% DMSO and 25 nM CA200645); […]; mean ± SD, three experiments in duplicate

`CCCCNc1cc(C(=O)O)cc(S(N)(=O)=O)c1Oc1ccccc1` [Bumetanide] was tested, and the “% 25 nM CA200645 binding” value was 94.3 ± 2.5%.

Same assay, conditions: compounds tested at 10 µM; % of control wells (1% DMSO and 25 nM CA200645); whole live cells expressing the A3AR; mean ± SD, three experiments in duplicate

`N[C@H](CCCP(=O)(O)O)C(=O)O` [D(-)-2-Amino-5-phosphonopentanoic acid] and `NC(N)=NCCCCN=C(N)N` [Arcaine sulfate] are within error of each other in “% 25 nM CA200645 binding” value: 109.4 ± 11.9% for the first, 96.1 ± 6.4% for the second.

`O=C1N(c2ccccc2)c2ccccc2C1(Cc1ccncc1)Cc1ccncc1` [Linopirdine] and `O=C1NC(=O)[C@@]2(CCOc3ccc(F)cc32)N1` [Sorbinil] are within error of each other in “% 25 nM CA200645 binding” value: 105.3 ± 3.6% for the first, 96.4 ± 14.0% for the second.

In the case of `Nc1ncnc2c1ncn2[C@@H]1O[C@H](CO)[C@@H](O)[C@H]1O` [adenosine], the “% 25 nM CA200645 binding” value is reported as 92.3 ± 7.9%.
